From patent US9075060B2, “Methods for diagnosing oral or oral-pharyngeal cancer” (Technion Research & Development Foundation Limited, priority 2009, dated 2015)

How the values were obtained:
[1] = molecular target: T1, TSPO (Homo sapiens, UniProt P30536); experiment: [3H]PK 11195 binding to membranes of SCC-25 cells, Scatchard analysis; conditions: mean±SD, n=7
T1 construct: Assays of [^3H]; host or cells: SCC-25 and SCC-15 human oral cancer cell lines
Experimental: (§1) Assays of [^3H] […] After 80 minute incubation at 4° C., the samples were filtered through Whatman CF/C filters using a vacuum system, washed three times with 4 ml of 5 mM ice cold phosphate buffer and placed in vials containing 4 ml of CytoScint™ (MP Biomedicals, Costa Mesa, Calif.). Radioactivity was counted after 12 hours with a liquid scintillation analyzer. Specific binding was obtained by subtracting non-specific binding from total binding.

[2] = molecular target: T1, TSPO; experiment: [3H]PK 11195 binding to membranes of SCC-15 cells, Scatchard analysis; conditions: mean±SD, n=16
Experimental: as §1

T1 sequence (P30536 whole entry): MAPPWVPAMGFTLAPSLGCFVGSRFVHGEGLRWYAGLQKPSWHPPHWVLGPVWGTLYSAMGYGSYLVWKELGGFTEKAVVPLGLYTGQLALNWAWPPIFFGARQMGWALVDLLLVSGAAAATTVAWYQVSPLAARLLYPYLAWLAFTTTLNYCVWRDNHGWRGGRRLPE

Bmax (maximal binding capacity) [1]: 3133±643 fmoles/mg protein | Bmax (maximal binding capacity) [2]: 6956±549 fmoles/mg protein
SMILES: CCC(C)N(C)C(=O)c1cc2ccccc2c(-c2ccccc2Cl)n1 (centres unmarked) [[^3H]PK 11195, PK 11195]
